Experimental data taken from PMC5328627 (Journal of natural products, 2009).

Experiments:
Format in all cases: cell-based, human
NCI-H522 = conditions: non-small cell lung cancer cell line; single high dose 10^−5 M
IGROV1 = conditions: ovarian cancer cell line; single high dose 10^−5 M
UO-31 = conditions: renal cancer cell line; single high dose 10^−5 M

Substance: cyclo(ATPFVPP) (SMILES CC(C)[C@@H]1NC(=O)[C@H](Cc2ccccc2)NC(=O)[C@@H]2CCCN2C(=O)[C@H]([C@@H](C)O)NC(=O)[C@H](C)NC(=O)[C@@H]2CCCN2C(=O)[C@@H]2CCCN2C1=O) [compound 2, euryjanicin B]
- Percent growth of NCI-H522 (NCI-H522): 83.9%
- Percent growth of IGROV1 (IGROV1): 91.3%
- Percent growth of UO-31 (UO-31): 76.3%

Substance: cyclo(FSPIFPI) (SMILES CC[C@H](C)[C@@H]1NC(=O)[C@@H]2CCCN2C(=O)[C@H](CO)NC(=O)[C@H](Cc2ccccc2)NC(=O)[C@H]([C@@H](C)CC)NC(=O)[C@@H]2CCCN2C(=O)[C@H](Cc2ccccc2)NC1=O) [compound 4, euryjanicin D]
- Percent growth of NCI-H522 (NCI-H522): 94.6%
- Percent growth of IGROV1 (IGROV1): 100%
- Percent growth of UO-31 (UO-31): 82.7%

Substance: cyclo(SIPLFPI) (SMILES CC[C@H](C)[C@@H]1NC(=O)[C@@H]2CCCN2C(=O)[C@H](Cc2ccccc2)NC(=O)[C@H](CC(C)C)NC(=O)[C@@H]2CCCN2C(=O)[C@H]([C@@H](C)CC)NC(=O)[C@H](CO)NC1=O) [compound 3, euryjanicin C]
- Percent growth of NCI-H522 (NCI-H522): 95.1%
- Percent growth of IGROV1 (IGROV1): 100%
- Percent growth of UO-31 (UO-31): 83.4%

Substance: dominicin [compound 5]
- Percent growth of NCI-H522 (NCI-H522): 100%
- Percent growth of IGROV1 (IGROV1): 100%
- Percent growth of UO-31 (UO-31): 32.8%

Substance: euryjanicin A [compound 1]
- Percent growth of NCI-H522 (NCI-H522): 72.2%
- Percent growth of IGROV1 (IGROV1): 82.6%
- Percent growth of UO-31 (UO-31): 73.6%
